{"source": "paper PMC9428149", "about": "“Tackling recalcitrant Pseudomonas aeruginosa infections in critical illness via anti-virulence monotherapy” (Nature Communications, 2022)", "system": "MvfR-regulated small molecules in PA14", "test": "Production of HAQs, 2-AA, DHQ and AA in PA14 cultures (LC-MS); as to AA: unit not given here", "conditions": "for 2-AA / DHQ / HQNO / PQS / HHQ: Figure 5a; for 2-AA / DHQ / HQNO / PQS / HHQ / AA: replicates; for AA: Figure 5b; for activity at 50 µM / IC50 / inhibition at 50 µM: Pseudomonas aeruginosa", "note": "“And” between values parts separate entries of the source, which are not always exact repeats. Equal values may be shown once. Read-outs that look alike come from different tables or passages of the source."}
{"compound": "N#Cc1ccc(NC(=O)C(F)C(=O)Nc2ccc(Oc3ccccc3)cc2)cc1", "note": "(centres unmarked) [D88]", "values": [{"measurement": "2-AA", "setting": "Compound 1.56e-6 M", "result": "57.52 and 53.71 and 61.03"}, {"measurement": "DHQ", "setting": "Compound 1.56e-6 M", "result": "42.56 and 47.41 and 47.02"}, {"measurement": "HQNO", "setting": "Compound 1.56e-6 M", "result": "65.26 and 66.09 and 66.02"}, {"measurement": "PQS", "setting": "Compound 1.56e-6 M", "result": "20.92 and 18.95 and 23.15"}, {"measurement": "2-AA", "setting": "Compound 3.13e-6 M", "result": "77.80 and 71.94 and 73.15"}, {"measurement": "DHQ", "setting": "Compound 3.13e-6 M", "result": "23.18 and 25.25 and 33.98"}, {"measurement": "HHQ", "setting": "Compound 3.13e-6 M", "result": "18.71 and 27.16 and 24.99"}, {"measurement": "HQNO", "setting": "Compound 3.13e-6 M", "result": "83.76 and 83.46 and 82.00"}, {"measurement": "PQS", "setting": "Compound 3.13e-6 M", "result": "64.68 and 63.03 and 59.62"}, {"measurement": "2-AA", "setting": "Compound 6.25e-6 M", "result": "94.51 and 93.72 and 94.23"}, {"measurement": "DHQ", "setting": "Compound 6.25e-6 M", "result": "82.36 and 85.39 and 83.09"}, {"measurement": "HHQ", "setting": "Compound 6.25e-6 M", "result": "97.83 and 98.02 and 97.82"}, {"measurement": "HQNO", "setting": "Compound 6.25e-6 M", "result": "95.97 and 95.46 and 95.76"}, {"measurement": "PQS", "setting": "Compound 6.25e-6 M", "result": "95.61 and 95.53 and 95.05"}, {"measurement": "2-AA", "setting": "Compound 1.25e-5 M", "result": "96.17 and 96.56 and 95.88"}, {"measurement": "DHQ", "setting": "Compound 1.25e-5 M", "result": "89.15 and 89.66 and 90.01"}, {"measurement": "HHQ", "setting": "Compound 1.25e-5 M", "result": "98.67 and 99.17 and 97.08"}, {"measurement": "HQNO", "setting": "Compound 1.25e-5 M", "result": "97.36 and 97.63 and 97.60"}, {"measurement": "PQS", "setting": "Compound 1.25e-5 M", "result": "98.30 and 97.73 and 97.38"}, {"measurement": "2-AA", "setting": "Compound 2.5e-5 M", "result": "96.54 (2×) and 95.16"}, {"measurement": "DHQ", "setting": "Compound 2.5e-5 M", "result": "90.35 and 91.27 and 89.56"}, {"measurement": "HHQ", "setting": "Compound 2.5e-5 M", "result": "99.13 (2×) and 96.58"}, {"measurement": "HQNO", "setting": "Compound 2.5e-5 M", "result": "97.58 and 97.87 and 97.81"}, {"measurement": "PQS", "setting": "Compound 2.5e-5 M", "result": "98.11 and 97.67 and 97.24"}, {"measurement": "2-AA", "setting": "Compound 5e-5 M", "result": "97.65 and 97.17 and 97.36"}, {"measurement": "DHQ", "setting": "Compound 5e-5 M", "result": "92.04 and 92.63 and 92.02"}, {"measurement": "HHQ", "setting": "Compound 5e-5 M", "result": "98.82 and 99.10 and 99.16"}, {"measurement": "HQNO", "setting": "Compound 5e-5 M", "result": "98.11 and 98.35 and 97.80"}, {"measurement": "PQS", "setting": "Compound 5e-5 M", "result": "97.51 and 97.36 and 96.79"}, {"measurement": "AA", "setting": "Compound 1.25E-05 M", "result": "599.608 and 615.624 and 726.139"}, {"measurement": "AA", "setting": "Compound 1.56E-06 M", "result": "43.3838 and 42.5844 and 52.2801"}, {"measurement": "AA", "setting": "Compound 1.95E-07 M", "result": "66.4944 and 66.9002 and 61.8554"}, {"measurement": "AA", "setting": "Compound 2.50E-05 M", "result": "648.607 and 690.995 and 748.985"}, {"measurement": "AA", "setting": "Compound 3.13E-06 M", "result": "37.3675 and 38.4724 and 34.81"}, {"measurement": "AA", "setting": "Compound 4.88E-08 M", "result": "60.2138 and 71.5203 and 96.3706"}, {"measurement": "AA", "setting": "Compound 5.00E-05 M", "result": "538.963 and 599.424 and 657.09"}, {"measurement": "AA", "setting": "Compound 6.25E-06 M", "result": "537.56 and 609.034 and 598.829"}, {"measurement": "AA", "setting": "Compound 7.81E-07 M", "result": "70.2961 and 63.8933 and 86.4668"}, {"measurement": "AA", "setting": "Compound 9.77E-08 M", "result": "72.0385 and 90.409 and 103.511"}, {"measurement": "activity at 50 µM", "setting": "PA14, read-out: % Production 2-AA", "result": 7, "unit": "%"}, {"measurement": "activity at 50 µM", "setting": "PA14, read-out: % Production AA", "result": 832, "unit": "%"}, {"measurement": "activity at 50 µM", "setting": "PA14, read-out: % Production DHQ", "result": 7, "unit": "%"}, {"measurement": "activity at 50 µM", "setting": "PA14, read-out: % Production HHQ", "result": 1, "unit": "%"}, {"measurement": "activity at 50 µM", "setting": "PA14, read-out: % Production HQNO", "result": 14, "unit": "%"}, {"measurement": "activity at 50 µM", "setting": "PA14, read-out: % Production PQS", "result": 4, "unit": "%"}, {"measurement": "IC50", "setting": "PA14, read-out: AA, dose-dependent production (IC50 curve)", "result": 4700, "unit": "nM"}, {"measurement": "inhibition at 50 µM", "setting": "PA14, read-out: HHQ production inhibition", "result": "89 to 99", "unit": "%"}, {"measurement": "inhibition at 50 µM", "setting": "PA14, read-out: HQNO production inhibition", "result": "40 to 92", "unit": "%"}, {"measurement": "IC50", "setting": "PA14, read-out: IC50 against 2-AA production", "result": 1500, "unit": "nM"}, {"measurement": "IC50", "setting": "PA14, read-out: IC50 against DHQ production", "result": 4140, "unit": "nM"}, {"measurement": "IC50", "setting": "PA14, read-out: IC50 against HHQ production", "result": 3100, "unit": "nM"}, {"measurement": "IC50", "setting": "PA14, read-out: IC50 against HQNO production", "result": 1300, "unit": "nM"}, {"measurement": "IC50", "setting": "PA14, read-out: IC50 against PQS production", "result": 2100, "unit": "nM"}, {"measurement": "inhibition at 50 µM", "setting": "PA14, read-out: PQS production inhibition", "result": "76 to 97", "unit": "%"}, {"measurement": "inhibition at 50 µM", "setting": "PA14, read-out: inhibition of 2-AA production", "result": "82 to 95", "unit": "%"}, {"measurement": "inhibition at 50 µM", "setting": "PA14, read-out: inhibition of DHQ production", "result": "82 to 96", "unit": "%"}]}
